# From US12090122B2, “Curcumin-based compositions and methods of use thereof” (priority 2017, dated 2024)
# Experiments:
# Format in all cases: cell-based
# [1] = test system: NFkB-p65; experiment: Western blot of cytoplasmic and nuclear NFkB-p65 protein levels (nucleotranslocation) in LPS-induced BV2 cells; details: 22.0 μg/ml, 30 min pre-treatment, LPS induction, FIGS. 3 and 4
# Experimental: (§1) Example 2—Western Blot Analysis of Cytoplasmic and Nuclear MSK1 Levels. Western blot analysis was performed in multiple varying formats before optimization was achieved. The BV2 microglia cell line was cultured in Dulbecco's Modified Eagle's Medium (DMEM)—complete medium. The complete medium consisted of DMEM, 1% Ampicillin, and 10% Fetal Bovine Serum (FBS). BV2 microglia cells, at a cell count of approximately 2×10^6, were seeded in each well (6 wells per plate) with 2.0 ml complete medium and cultured overnight in a ThermaForma HepaFilter Series II CO2 Incubator at 37° Celsius. Upon establishing confluence, subconfluent cells were washed out and the wells were prepared with drug pre-treatment after overnight incubation.
# (§2) The test drugs (curcuminoids) were procured as follows: curcumin I research standard (03926) (ChromaDex Irvine, CA USA) (97.7% purity); curcumin II research standard (04230) (ChromaDex Irvine, CA USA) (97.3%); curcumin III research standard (B6938) (Sigma-Aldrich St. Louis, Missouri, USA) (97.7% purity); curcumin extract (curcumin I—77.7%, curcumin II—16.9%, curcumin III—0.9%) research standard (03928) (ChromaDex Irvine, CA USA) (95.3% purity); and Lipopolysaccharide (LPS) from E. Coli (L2630) (Sigma-Aldrich St. Louis, Missouri, USA).
# (§3) Curcuminoids are not soluble in aqueous medium due to their hydrophobic characteristic. However, curcuminoid extracts are soluble in polar organic solvents, such as DMSO and acetone. In this Example, each curcuminoid preparation was first dissolved in DMSO. DMSO was used in the drug preparation at 0.2%. The drug/DMSO solution was subsequently dissolved in DMEM to achieve a final drug concentration for each curcuminoid preparation tested—22.0 μg/ml curcuminoid. […]
# (§4) Total protein concentration for each fraction was determined using a Bio Rad Protein Assay that is based on the Bradford Assay (dye-binding method). […]
# (§5) The targets analyzed in the Western Blot included NFkB-p65 and its nucleocytoplasmic translocation, as well as kinases (including MSK1) and their covalent modifications upstream of and involved in the regulation of NFkB. […]
# [2] = test system: NFkB p65 phosphorylated at the serine 276 phosphosite; experiment: Western blot of NFkB-p65 phosphorylated at serine 276 in LPS-induced BV2 cells; details: 22.0 μg/ml, 30 min pre-treatment, LPS induction, cytoplasmic and nuclear, FIGS. 5 and 6
# Experimental: as §1, §2, §3, §4, §5
# [3] = test system: MSK1 phosphorylated at the serine 376 phosphosite; experiment: Western blot of MSK1 phosphorylated at serine 376 in LPS-induced BV2 cells; details: 22.0 μg/ml, 30 min pre-treatment, LPS induction, FIGS. 9 and 10
# Experimental: as §1, with “incubation. […]” for “incubation.”
# as §4, §5
smiles,measurement,setting,value
"COc1cc(/C=C/C(=O)CC(=O)/C=C/c2ccc(O)cc2)ccc1O [curcumin II, (1E,6E)-1-(4-Hydroxy-3-methoxyphenyl)-7-(4-hydroxyphenyl)hepta-1,6-diene-3,5-dione]",NFkB-p65 nucleotranslocation (cytosolic and nuclear NFkB-p65 levels relative to total protein),[1],not significantly inhibited
same,NFkB-p65 serine 276 phosphorylation,[2],moderately inhibit
same,MSK1 serine 376 phosphorylation,[3],inhibit
"O=C(/C=C/c1ccc(O)cc1)CC(=O)/C=C/c1ccc(O)cc1 [curcumin III, (1E,6E)-1,7-bis(4-hydroxyphenyl)hepta-1,6-diene-3,5-dione]",NFkB-p65 nucleotranslocation (cytosolic and nuclear NFkB-p65 levels relative to total protein),[1],not significantly inhibited
same,NFkB-p65 serine 276 phosphorylation,[2],moderately inhibit
"COc1cc(/C=C/C(=O)/C=C(O)/C=C/c2ccc(O)c(OC)c2)ccc1O [curcumin I, (1E,6E)-1,7-Bis(4-hydroxy-3-methoxyphenyl)-1,6-heptadiene-3,5-dione, reference compound]",NFkB-p65 nucleotranslocation (cytosolic and nuclear NFkB-p65 levels relative to total protein),[1],not significantly inhibited
same,NFkB-p65 serine 276 phosphorylation,[2],moderately inhibit
